Source: patent US7056707B2, “Bioactive compound and its isolation and method of treatment for lipoxygenase inhibition and as free radical scavenging agent” (Council of Scientific and Industrial Research, priority 2002, dated 2006)
Entries after “also recorded” stand apart in the source; their conditions may differ.

Assays:
[1] = target: T1, crude rat lens aldose reductase (Rattus norvegicus, UniProt P07943); assay: Rat lens aldose reductase inhibition, decrease in absorbance at 340 nm; format: biochemical; conditions: as stated in embodiment b50; read-out: IC50 against crude rat lens aldose reductase
T1 construct: from tissue; host or cells: rat eye lens homogenate, 10,000 r.p.m. supernatant
Protocol: Lens are collected from rat eyes and homogenised with sodium, potassium phosphate buffer (0.135 M, pH 7.0) containing 0.5 mM of phenyl methyl sulphonyl fluoride and 10 mM of p-mercaptoethanol. The homogenate is centrifuged at 10,000 r.p.m for 30 minutes at 4° C. The supernatant is taken as enzyme source. Enzyme reaction is carried out at 25° C. in a quartz cuvette with a 1-cm light path. The assay mixture contained 100 μL of nicotinamide adenine dinucleotide phosphate tetra sodium salt (from a stock solution of 9.6 mM), 100 μL of DL-glyceraldehyde (from a stock solution of 250 mM), 10 μL of inhibitor dissolved in dimethyl sulphoxide, sodium-potassium-phosphate buffer (0.135 M, pH 7.0) to make up the total volume to […] and the reaction is initiated by the addition of 200 μL of enzyme solution. The enzyme reaction is monitored by the decrease in absorbency at 340 nm and compared with enzyme reaction without inhibitor.

Solubility in solvents = format: physicochemical
Description: The compound is amorphous yellow powder.

[2] = target: T2, purified soybean lipoxygenase (LOX-1) (Glycine max, UniProt P08170); assay: Soybean lipoxygenase (LOX-1) inhibition, absorbance at 234 nm; format: biochemical; conditions: as stated in embodiment b50; read-out: IC50 against purified soybean lipoxygenase
T2 construct: Soybean lipoxygenase (LOX-1) is purified according to the method of Axelrod et al; from tissue; host or cells: soybean seeds (Hardee variety), dehulled and defatted
T2 sequence (P08170 1-839): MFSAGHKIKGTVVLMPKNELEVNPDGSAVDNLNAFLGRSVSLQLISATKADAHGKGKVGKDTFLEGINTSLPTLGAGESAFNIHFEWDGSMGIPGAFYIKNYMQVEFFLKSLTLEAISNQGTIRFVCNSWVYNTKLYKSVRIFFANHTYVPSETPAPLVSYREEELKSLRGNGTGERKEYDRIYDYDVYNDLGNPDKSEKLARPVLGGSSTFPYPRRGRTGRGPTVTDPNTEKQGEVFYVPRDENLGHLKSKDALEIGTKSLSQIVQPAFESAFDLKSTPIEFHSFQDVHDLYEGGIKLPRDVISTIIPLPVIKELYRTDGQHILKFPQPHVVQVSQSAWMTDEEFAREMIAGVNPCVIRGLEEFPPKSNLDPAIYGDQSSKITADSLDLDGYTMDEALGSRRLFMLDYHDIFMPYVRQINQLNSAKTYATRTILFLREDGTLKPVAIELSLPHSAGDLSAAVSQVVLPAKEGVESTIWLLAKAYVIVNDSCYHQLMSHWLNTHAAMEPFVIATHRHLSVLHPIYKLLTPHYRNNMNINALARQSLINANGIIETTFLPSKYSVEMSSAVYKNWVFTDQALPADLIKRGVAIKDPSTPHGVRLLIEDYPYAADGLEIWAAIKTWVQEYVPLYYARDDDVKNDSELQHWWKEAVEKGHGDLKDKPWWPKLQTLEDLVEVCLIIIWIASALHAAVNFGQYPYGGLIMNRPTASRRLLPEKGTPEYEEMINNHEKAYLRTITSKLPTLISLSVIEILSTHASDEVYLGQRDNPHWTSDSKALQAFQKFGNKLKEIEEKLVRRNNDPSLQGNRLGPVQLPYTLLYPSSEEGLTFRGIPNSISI
Protocol: Soybean lipoxygenase (LOX-1) is purified according to the method of Axelrod et al., lipoxygenase from soybeans. Methods in Enzymology 1981, 71, 441–451, using the Hardee variety of soybean, after dehulling and defatting by hexane. The substrate, sodium linoleate (10 mM) is prepared as follows:
To 70 mg of linoleic acid an equal weight of Tween-20 and 4 ml of oxygen free water is added and homogenized by drawing back and forth in a pasture pipette, avoiding air bubbles. Sufficient quantity of 0.5 N NaOH is added to this to yield a clear solution. The resulting sodium linoleate is divided into 1–2 mL portions in small screw cap vials, flushed with N2 before closing, and keep frozen until needed. Enzyme reaction is carried out at 25° C. in a quartz cuvette with a 1 cm light path. The assay mixture contained (2.975−x) ml of borate buffer (0.2 M, pH 9.0), 0.025 ml of sodium linoleate substrate, and x mL of enzyme. After each addition the mixture is stirred with a few strokes of a plastic paddler. The reference cuvette contained no enzyme. Absorption at 234 nm is recorded, and the reaction rate is determined from the slope of the straight-line portion of the curve.

With `C/C=C/c1c(C)c(OC)c(C(=O)O)c(C(N)=O)c1O` [compound 1, 2-amido, 3-hydroxy, 4-propene, 5-methyl, 6-methoxy benzoic acid] the IC50 [1] was 69 µM, the “solubility in chloroform and hexane” value (Solubility in solvents; chloroform, hexane) was “sparingly soluble; also recorded: slightly soluble” and the “solubility in organic solvents” value (Solubility in solvents; ethanol, methanol, ethyl acetate, dimethyl sulphoxide) was “soluble”. The “solubility in aqueous alkaline solution” value (Solubility in solvents; sodium bicarbonate, sodium carbonate, sodium hydroxide solution (b24 also potassium bicarbonate, potassium carbonate, lithium hydroxide, potassium hydroxide)) was “soluble”, the solubility in water (Solubility in solvents; water) was “insoluble” and the IC50 [2] was 79 µM.
